Consider 55 molecules from patent US8232406B2, “c-MET protein kinase inhibitors” (Vertex Pharmaceuticals Incorporated, priority 2006, dated 2012).

One may read the Ki as a dissociation constant, usually derived from enzyme kinetics or from competition with a known ligand. Read a high Ki as lower affinity.

The target in the assay is c-MET (Homo sapiens, UniProt P08581). Description: Ki determination for the inhibition of c-MET (standard radiometric 33P-ATP kinase assay, polyE4Y substrate). The format is biochemical. The note with it: 1.0 nM c-Met, 35 μM ATP, 0.5 mg/mL polyE4Y, 20 min; competitive tight-binding fit. In short, it runs like this:
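Radiometric assay of 33P transfer from 33P-ATP (35 μM) to polyE4Y (0.5 mg/mL) by 1.0 nM c-Met in 100 mM HEPES pH 7.5, 10 mM MgCl2, 25 mM NaCl, 0.01% BSA, 1 mM DTT. TCA-quenched after 20 min, filter-captured, scintillation-counted; Ki fitted to a competitive tight-binding model.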

Chain of c-MET (P08581 25-1390): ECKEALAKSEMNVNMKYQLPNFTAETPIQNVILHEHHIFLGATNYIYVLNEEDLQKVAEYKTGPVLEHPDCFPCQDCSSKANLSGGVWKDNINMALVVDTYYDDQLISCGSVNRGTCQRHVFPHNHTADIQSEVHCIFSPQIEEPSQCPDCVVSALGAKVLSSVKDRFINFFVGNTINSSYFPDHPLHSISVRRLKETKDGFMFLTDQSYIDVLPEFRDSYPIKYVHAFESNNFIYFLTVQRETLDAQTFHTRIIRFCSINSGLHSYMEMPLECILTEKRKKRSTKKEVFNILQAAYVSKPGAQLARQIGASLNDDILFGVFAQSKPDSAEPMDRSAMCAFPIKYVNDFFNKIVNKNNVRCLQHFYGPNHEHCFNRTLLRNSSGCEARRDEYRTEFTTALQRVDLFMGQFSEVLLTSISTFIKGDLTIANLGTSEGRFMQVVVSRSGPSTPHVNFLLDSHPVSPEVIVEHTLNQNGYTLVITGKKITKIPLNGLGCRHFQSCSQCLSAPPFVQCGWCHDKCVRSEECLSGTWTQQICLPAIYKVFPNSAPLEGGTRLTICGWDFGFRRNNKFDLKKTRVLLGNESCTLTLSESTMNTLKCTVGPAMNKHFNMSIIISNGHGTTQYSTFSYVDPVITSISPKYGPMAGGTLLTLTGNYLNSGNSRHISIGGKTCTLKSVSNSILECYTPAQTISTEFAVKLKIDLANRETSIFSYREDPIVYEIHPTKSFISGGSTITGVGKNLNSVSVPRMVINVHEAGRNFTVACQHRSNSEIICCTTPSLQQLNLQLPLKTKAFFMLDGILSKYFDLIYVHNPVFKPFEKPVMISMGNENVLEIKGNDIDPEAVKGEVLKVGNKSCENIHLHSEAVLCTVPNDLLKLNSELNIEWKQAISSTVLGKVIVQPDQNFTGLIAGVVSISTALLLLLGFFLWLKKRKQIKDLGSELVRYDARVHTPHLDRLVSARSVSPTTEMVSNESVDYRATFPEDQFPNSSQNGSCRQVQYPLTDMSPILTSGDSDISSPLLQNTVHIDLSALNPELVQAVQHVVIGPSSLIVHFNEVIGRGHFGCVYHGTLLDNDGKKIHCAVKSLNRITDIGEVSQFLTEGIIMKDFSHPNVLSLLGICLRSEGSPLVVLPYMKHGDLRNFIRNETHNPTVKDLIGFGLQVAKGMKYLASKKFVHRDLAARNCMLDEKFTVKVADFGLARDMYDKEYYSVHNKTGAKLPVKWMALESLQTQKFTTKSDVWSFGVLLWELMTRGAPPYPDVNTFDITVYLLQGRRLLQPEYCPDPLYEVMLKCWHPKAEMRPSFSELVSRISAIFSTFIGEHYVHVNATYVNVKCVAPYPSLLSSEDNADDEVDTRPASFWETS

Turning to `Nc1ncc(-c2cnn(CC3CCNCC3)c2)cc1-c1nnnn1-c1cccc(F)c1F` [I-A-502], the Ki is not above 100 nM.
For the molecule `Nc1ncc(-c2ccc(C3NC(=O)NC3=O)cc2)cc1-c1nnnn1-c1cccc(F)c1F` (stereo not shown) [I-A-257], the Ki was not above 100 nM.
As for `Nc1ncc(-c2ccc(CN3CCCCC3)cc2)cc1-c1nnnn1-c1cccc(F)c1F` [I-A-134], the figure is not above 100 nM; as for `Nc1ncc(C2=CCN(C(=O)CC3CC3)CC2)cc1-c1nnnn1-c1cccc(F)c1F` [I-A-524], not above 100 nM; as for `CC(=O)c1cccc(-c2cnc(N)c(-c3nnnn3-c3cccc(F)c3F)c2)c1` [I-A-218], not above 100 nM.
The molecule `CC(=O)Nc1cccc(-c2cnc(N)c(-c3nnnn3-c3cccc(Cl)c3)c2)c1` [I-A-359] came in with a Ki of 100 to 1000 nM.
Molecule `CNCc1ccc(-c2cnc(N)c(-c3nnnn3-c3cccc(F)c3F)c2)cc1` [I-A-200] returned a Ki not above 100 nM.
Consider `CC1CN(Cc2ccc(-c3cnc(N)c(-c4nnnn4-c4cccc(Cl)c4Cl)c3)cc2)CCN1` (stereo not shown) [I-A-106], for which the Ki was not above 100 nM.
Consider `CC(=O)N1CCc2cc(-c3cnc(N)c(-c4nnnn4-c4cccc(F)c4F)c3)ccc21` [I-A-182], for which the Ki is not above 100 nM.
`CCNC(=O)Nc1nc2cc(F)c(-c3cnc(N)c(-c4nnnn4-c4cccc(F)c4F)n3)cc2[nH]1` [I-A-53] showed a Ki of 100 to 1000 nM.
The molecule `CN1CCN(Cc2ccc(-c3cnc(N)c(-c4nnnn4-c4cccc(F)c4F)c3)cc2)CC1` [I-A-62, 3-(1-(2,3-Difluorophenyl)-1H-tetrazol-5-yl)-5-(4-((4-methylpiperazin-1-yl)methyl)phenyl)pyridin-2-amine] gave a Ki not above 100 nM.
Consider `CN[C@@H](C)c1ccc(-c2cnc(N)c(-c3nnnn3-c3cccc(F)c3F)c2)cc1` [I-A-351], for which the Ki is not above 100 nM.
The molecule `Nc1ncc(-c2cccc(N3CCNCC3)c2)cc1-c1nccn1-c1cccc(Cl)c1Cl` [I-A-401] came in with an inhibitory constant (Ki) not above 100 nM.
`Nc1ncc(C2=CCN(C(=O)OC3CCOC3)CC2)cc1-c1nnnn1-c1cccc(F)c1F` (stereo not shown) [I-A-520] showed a Ki not above 100 nM.
The figure for `C[C@@H](N)c1ccc(-c2cnc(N)c(-c3nnnn3-c3cccc(F)c3F)c2)cc1` [I-A-153] is not above 100 nM.
The molecule `CC(=O)N(C)c1ccc(-c2cnc(N)c(-c3nnnn3-c3cccc(F)c3F)c2)cc1` [I-A-337] gave a Ki not above 100 nM.
`CCCC(=O)Nc1ccc(-c2cnc(N)c(-c3nnnn3-c3cccc(F)c3F)c2)cc1` [I-A-195] showed a Ki of 100 to 1000 nM.
The molecule `Nc1ncc(-c2cn[nH]c2)cc1-c1nncn1-c1cccc(Cl)c1F` [I-A-439] displayed a Ki of 100 to 1000 nM.
`Nc1ncc(-c2ccc(N3CC(CO)OC3=O)cc2)cc1-c1nnnn1-c1cccc(F)c1F` (stereo not shown) [I-A-372] yielded a Ki not above 100 nM.
As for `CC(=O)Nc1cc(-c2cnc(N)c(-c3nnnn3-c3cccc(F)c3F)c2)ccc1CN1CCCC1` [I-A-339], the figure is not above 100 nM; as for `Nc1ncc(-c2cccc(CO)c2)cc1-c1nnnn1-c1cccc(F)c1F` [I-A-231], not above 100 nM; as for `Nc1ncc(C2=CCN(C(=O)c3ccncc3)CC2)cc1-c1nnnn1-c1cccc(F)c1F` [I-A-518], not above 100 nM.
`Nc1ncc(-c2ccccc2)cc1-c1nncn1-c1cccc(Cl)c1Cl` [I-A-74] gave an inhibitory constant (Ki) of 100 to 1000 nM.
As to `CN1CCC(n2cc(-c3cnc(N)c(-c4nnnn4-c4cccc(Cl)c4F)c3)cn2)CC1` [I-A-436], the Ki is not above 100 nM.
Turning to `Nc1ncc(-c2ccc(N3CCCC3)nc2)nc1-c1nnc(O)n1-c1cccc(F)c1F` [I-A-18], the Ki lay within 100 to 1000 nM.
Consider `Nc1ncc(C2=CCN(C(=O)C3CCOC3)CC2)cc1-c1nnnn1-c1cccc(F)c1F` (stereo not shown) [I-A-422], for which the Ki is not above 100 nM.
For the molecule `Nc1ncc(-c2cccc(F)c2F)cc1-c1nnnn1-c1cccc(F)c1F` [I-A-301], the Ki is 100 to 1000 nM.
With `CC(=O)Nc1cccc(-c2cnc(N)c(-c3nnnn3-c3cccc(F)c3C)c2)c1` [I-A-564], the Ki fell in the range of 100 to 1000 nM.
As for `CCOC(=O)N1CCc2cc(-c3cnc(N)c(-c4nnnn4-c4cccc(F)c4F)c3)sc2CC1` [I-A-480], the figure is not above 100 nM.
As for `Nc1ncc(-c2cnn(C3CCNCC3)c2)cc1-c1nc2cccnc2n1-c1cccc(F)c1F` [I-D-7], the figure is not above 100 nM; as for `CC(C)CC(=O)N1CC=C(c2cnc(N)c(-c3nnnn3-c3cccc(F)c3F)c2)CC1` [I-A-513], not above 100 nM; as for `N#Cc1cccc(-c2cnc(N)c(-c3nnnn3-c3cccc(F)c3F)c2)c1` [I-A-228], 100 to 1000 nM.
For `Nc1ncc(-c2ccc(CN3CCCC3)cc2)cc1-c1nc2cnccc2n1-c1cccc(F)c1F` [I-D-3], the Ki was not above 100 nM.
As for `CN(C)CCCNC(=O)c1ccc(-c2cnc(N)c(-c3nnnn3-c3cccc(F)c3F)c2)cc1` [I-A-136], the figure is not above 100 nM.
Molecule `Nc1ncc(C2=CCN(C(=O)C[C@@H]3CCCN3)CC2)cc1-c1nnnn1-c1cccc(F)c1F` [I-A-505] gave a Ki not above 100 nM.
In turn, `Nc1ncc(-c2ccc(CO)cc2)cc1-c1nncn1-c1cccc(Cl)c1Cl` [I-A-78] returned a Ki of 100 to 1000 nM.
On to `C[C@@H](c1ccc(-c2cnc(N)c(-c3nnnn3-c3cccc(F)c3F)c2)cc1)N1CCCC1` [I-A-211], for which the Ki was not above 100 nM.
`CN(C)c1ccc(-c2cnc(N)c(-c3nncn3-c3cccc(Cl)c3Cl)c2)cc1` [I-A-72] returned a Ki of 100 to 1000 nM.
As for `CC(=O)Nc1cccc(-c2cnc(N)c(-c3nnnn3-c3cc(F)cc(F)c3Cl)c2)c1` [I-A-570], the figure is 100 to 1000 nM; as for `Cc1cccc(-c2cnc(N)c(-c3nnnn3-c3cccc(F)c3F)c2)c1` [I-A-242], not above 100 nM.
As for `CN1CCN(Cc2ccc(-c3cnc(N)c(-c4nc5cnccc5n4-c4cccc(F)c4F)c3)cc2)CC1` [I-D-5], the figure is not above 100 nM.
Regarding `Nc1ncc(-c2cccnc2)cc1-c1nnnn1-c1c(Cl)cccc1Cl` [I-A-609], the Ki was in the range of 100 to 1000 nM.
`Nc1ncc(-c2ccncc2)cc1-c1nnnn1-c1cccc(Cl)c1Cl` [I-A-84] yielded a Ki of 100 to 1000 nM.
Turning to `Nc1ncc(-c2cnn(C3CCNCC3)c2)cc1-c1nc2cccnc2n1-c1cccc(Cl)c1F` [I-D-15], the Ki lay within 100 to 1000 nM.
For the molecule `Nc1ncc(-c2ccc(N3CCCC3)nc2)cc1-c1nnnn1-c1cccc(Cl)c1Cl` [I-A-82], the Ki lay within 100 to 1000 nM.
The molecule `Nc1ncc(-c2cnn(C3CCNCC3)c2)cc1-c1nccn1-c1cccc(Cl)c1Cl` [I-A-394] gave a Ki not above 100 nM.
On to `CN(C)Cc1ccc(-c2cnc(N)c(-c3nnnn3-c3cc(F)cc(F)c3)c2)cc1` [I-A-591], for which the Ki lay in the range of 100 to 1000 nM.
With `Nc1ncc(-c2ccc(C3CCNCC3)s2)cc1-c1nnnn1-c1cccc(Cl)c1F` [I-A-532], the Ki was not above 100 nM.
As for `CN(C)Cc1ccc(-c2cnc(N)c(-c3nnnn3-c3cccc(Cl)c3F)c2)cc1` [I-A-360], the Ki is not above 100 nM.
In turn, `CN(C)CCNC(=O)c1ccc(-c2cnc(N)c(-c3nnnn3-c3cccc(F)c3F)c2)cc1` [I-A-135] gave a Ki not above 100 nM.
As for `Nc1ncc(-c2ccc(OCCN3CCCC3)cc2)cc1-c1nnnn1-c1cccc(F)c1F` [I-A-346], the Ki is not above 100 nM.
The molecule `Nc1ncc(-c2ccc(CN3CCCC3)cc2)cc1-c1nnnn1-c1c(F)cccc1Cl` [I-A-616] gave a Ki not above 100 nM.
`Nc1cccc(-c2cnc(N)c(-c3nncn3-c3cccc(F)c3F)n2)c1` [I-A-12] gave a Ki not above 100 nM.
`Nc1ncc(-c2cccc(C(F)(F)F)c2)cc1-c1nncn1-c1cccc(F)c1F` [I-A-116] registered a Ki of 100 to 1000 nM.
On to `Nc1ncc(-c2cccnc2)cc1-c1nnsc1-c1cccc(Cl)c1Cl` [I-C-1], for which the Ki is 100 to 1000 nM.
